Measured values from patent US20250084097A1, “MACROCYCLIC AMIDE COMPOUNDS AND APPLICATION THEREOF” (Medshine Discovery Inc., priority 2021, published 2025).
Where two headings read alike, the source gives them in different places.

Tests used:
[1] = Pharmacokinetic assay of compounds in mice; format: in vivo, male ICR mice; details: for Vd / AUC(0-t) / half-life / C0 / bioavailability / Cmax / Tmax: male, ICR, mouse, plasma; for Vd: read-out: Apparent volume of distribution Vd; for AUC(0-t): read-out: Area under the curve AUC0-last; for half-life: read-out: Half-life T1/2 (converted); for C0: read-out: Starting concentration C0; for bioavailability: PO 10 mg/kg vs IV 3 mg/kg, read-out: Bioavailability F %; for Cmax: read-out: Peak concentration Cmax; for Tmax: read-out: Time to peak Tmax
Source text: Assay purpose: 7-9-week-old male ICR mice were used as test animals. LC/MS/MS method was used to determine the drug concentration of the compound in the plasma at different times after a single intravenous injection (IV) and oral administration (PO) of the compound, to study the pharmacokinetic behavior of the compounds of the present disclosure in mice, and to evaluate their pharmacokinetic characteristics.
Formulation of drug: The compounds were formulated as solutions in the respective solvents for administration in IV (intravenous injection) and PO (oral administration) groups. The dose of each compound was 3 mg/kg for IV and 10 mg/kg for PO, and the vehicle was 10% DMSO+10% solutol+80% (10% HP-β-CD).

Ba/F3-FL-EGFR (L858R) = Ba/F3-FL-EGFR (L858R) (Homo sapiens, UniProt P00533, L858R, cells depend on it); assay: Cell proliferation inhibition, CellTiter-Glo; format: cell-based; details: 72 hours, read-out: Cell half-maximal inhibition concentration IC50 Ba/F3-FL-EGFR (L858R)
Sequence of Ba/F3-FL-EGFR (L858R) (P00533 whole entry L858R): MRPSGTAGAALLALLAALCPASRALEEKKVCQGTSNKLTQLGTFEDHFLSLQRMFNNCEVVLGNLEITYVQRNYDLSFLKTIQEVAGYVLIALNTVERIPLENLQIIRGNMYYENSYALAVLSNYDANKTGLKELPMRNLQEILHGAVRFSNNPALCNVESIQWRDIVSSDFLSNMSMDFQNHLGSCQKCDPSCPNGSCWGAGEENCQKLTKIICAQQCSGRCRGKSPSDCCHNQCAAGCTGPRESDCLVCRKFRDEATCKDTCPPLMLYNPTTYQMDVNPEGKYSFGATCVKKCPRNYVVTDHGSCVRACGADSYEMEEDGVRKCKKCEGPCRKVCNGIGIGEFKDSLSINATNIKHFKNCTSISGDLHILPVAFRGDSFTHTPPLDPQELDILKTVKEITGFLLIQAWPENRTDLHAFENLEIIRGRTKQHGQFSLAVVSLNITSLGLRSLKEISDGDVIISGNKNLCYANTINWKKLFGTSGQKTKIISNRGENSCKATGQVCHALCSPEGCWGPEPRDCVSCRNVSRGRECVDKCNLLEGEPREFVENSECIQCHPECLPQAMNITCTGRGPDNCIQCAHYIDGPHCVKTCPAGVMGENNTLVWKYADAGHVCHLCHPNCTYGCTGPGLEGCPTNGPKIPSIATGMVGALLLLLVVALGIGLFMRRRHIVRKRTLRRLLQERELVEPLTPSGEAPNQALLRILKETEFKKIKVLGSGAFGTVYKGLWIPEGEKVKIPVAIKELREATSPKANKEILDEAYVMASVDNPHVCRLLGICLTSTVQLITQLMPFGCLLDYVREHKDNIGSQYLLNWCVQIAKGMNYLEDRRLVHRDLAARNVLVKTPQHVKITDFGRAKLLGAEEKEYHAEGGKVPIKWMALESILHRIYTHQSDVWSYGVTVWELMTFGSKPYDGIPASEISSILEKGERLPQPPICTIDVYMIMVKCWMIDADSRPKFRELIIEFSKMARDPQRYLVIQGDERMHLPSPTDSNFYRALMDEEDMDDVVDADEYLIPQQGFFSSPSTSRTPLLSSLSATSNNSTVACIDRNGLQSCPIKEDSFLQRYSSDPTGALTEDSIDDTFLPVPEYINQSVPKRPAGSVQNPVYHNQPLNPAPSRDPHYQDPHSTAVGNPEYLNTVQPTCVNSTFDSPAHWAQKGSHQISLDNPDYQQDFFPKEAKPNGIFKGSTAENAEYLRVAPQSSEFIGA
Description: (§1) AdenosineTri-Phosphate (ATP) is an energy carrier shared by various life activities in nature, and is the smallest unit of energy storage and transfer. The CellTiter-Glo™ living cell assay kit uses luciferase as a detector, and luciferase requires the participation of ATP in the process of luminescence. CellTiter-Glo™ reagent is added to a cell culture medium, and the luminescence value is measured. The light signal is directly proportional to the amount of ATP in the system, and ATP is positively correlated with the number of living cells. Therefore, cell proliferation can be detected by detecting ATP content with the CellTiter-Glo kit. In this assay, the cell lines were Ba/F3-FL-EGFR (L858R/T790M/C797S), Ba/F3-FL-EGFR (WT), Ba/F3-FL-EGFR (L858R), Ba/F3-FL-EGFR (del19-S752-I759), Ba/F3-FL-EGFR (del19-E746-A750/T790M/C797S), Ba/F3-FL-EGFR (L858R/T790M), Ba/F3-FL-EGFR (del19-E746-A750/T790M), Ba/F3-TEL-EGFR (L858R/C797S), Ba/F3-FL-EGFR (del19-E746-A750/C797S) stably transfected cell lines.
(§2) The cell lines were cultured in an incubator at 37° C. and 5% CO2. The cells were periodically passaged, and cells in logarithmic growth phase were taken for plating.
(§3) a) DMSO was used to prepare a 10 mM solution of the compound to be tested, and then the compound to be tested was diluted to 0.3 or 1 mM with DMSO.
(§4) b) Preparation of 1000× compound storage plate (tube): DMSO was used to dilute by 3-fold gradient from the highest concentration to the lowest concentration, with a total of 9 concentrations.
(§5) c) Preparation of 20× compound working solution: 49 μL of cell culture medium was added to a flat-bottomed 96-well transparent drug plate, and 1 μL of compound was pipetted from the 1000× compound storage plate to the cell culture medium of the 96-well transparent drug plate. 1 μL of DMSO was added to the vehicle control. After adding compound or DMSO, the well content was mixed to uniform by aspiration and expelling with pipette.
(§6) a) Cells were stained with trypan blue and viable cells were counted. The cell viability rate was required to be above 90%.
(§7) b) 95 μL of cell suspension (2000 cells/well) was added to each well of the compound detection cell plate, and culture medium without cells (containing 0.1% DMSO) was added to the Min control well.
(§8) c) Dosing in the compound detection cell plate: 5 μL of 20× compound working solution was added to the cell culture plate. 5 μL of DMSO-cell culture mixture was added to the Max control. The final concentration of DMSO was 0.1%.
(§9) d) The culture plate was incubated in an incubator at 37° C., 5% CO2 for 72 hours.
(§10) The following steps were performed according to the instruction of Promega CellTiter-Glo luminescence cell viability detection kit (Promega-G7573). • a) The CellTiter-Glo buffer was thawed and allowed to stand to reach room temperature; • b) CellTiter-Glo substrate was allowed to stand to reach room temperature; • c) CellTiter-Glo buffer was added to CellTiter-Glo substrate in a bottle to dissolve the substrate to formulate CellTiter-Glo working solution; • d) The working solution was vortexed slowly for fully dissolution; • e) The cell culture plates were taken out and allowed to stand for 10 minutes to equilibrate to room temperature; • f) 50 μL (equal to half the volume of cell culture solution in each well) of Cell Titer-Glo working solution was added into each well. • g) The culture plates were shaken on an orbital shaker for 2 minutes to induce cell lysis; • h) The culture plates were left at room temperature for 10 minutes to stabilize the luminescence signal; • i) The luminous signal was detected on the PerkinElmer EnVision®2105 plate reader.
(§11) By PerkinElmer EnVision®2105 reading, the corresponding […] value RLU for each well was yielded.
(§12) Cell proliferation inhibition rate (Inhibition Rate) data were processed using the following formula:
(§13) Inhibition Rate (Inh %)=100−(RLUDrug−RLUMin)/(RLUMax−RLUMin)*100%. […]

[2] = biological target: T1, Ba/F3-TEL-EGFR (L858R/C797S) (Homo sapiens, UniProt P00533, C797S/L858R, cells depend on it); assay: Cell proliferation inhibition, CellTiter-Glo; format: cell-based
T1 construct: fused on or other part: TEL (ETV6) N-terminal oligomerising part fused to the EGFR kinase part; P41212 (Transcription factor ETV6)
T1 sequence (P00533 whole entry C797S/L858R, the tested form may be a part): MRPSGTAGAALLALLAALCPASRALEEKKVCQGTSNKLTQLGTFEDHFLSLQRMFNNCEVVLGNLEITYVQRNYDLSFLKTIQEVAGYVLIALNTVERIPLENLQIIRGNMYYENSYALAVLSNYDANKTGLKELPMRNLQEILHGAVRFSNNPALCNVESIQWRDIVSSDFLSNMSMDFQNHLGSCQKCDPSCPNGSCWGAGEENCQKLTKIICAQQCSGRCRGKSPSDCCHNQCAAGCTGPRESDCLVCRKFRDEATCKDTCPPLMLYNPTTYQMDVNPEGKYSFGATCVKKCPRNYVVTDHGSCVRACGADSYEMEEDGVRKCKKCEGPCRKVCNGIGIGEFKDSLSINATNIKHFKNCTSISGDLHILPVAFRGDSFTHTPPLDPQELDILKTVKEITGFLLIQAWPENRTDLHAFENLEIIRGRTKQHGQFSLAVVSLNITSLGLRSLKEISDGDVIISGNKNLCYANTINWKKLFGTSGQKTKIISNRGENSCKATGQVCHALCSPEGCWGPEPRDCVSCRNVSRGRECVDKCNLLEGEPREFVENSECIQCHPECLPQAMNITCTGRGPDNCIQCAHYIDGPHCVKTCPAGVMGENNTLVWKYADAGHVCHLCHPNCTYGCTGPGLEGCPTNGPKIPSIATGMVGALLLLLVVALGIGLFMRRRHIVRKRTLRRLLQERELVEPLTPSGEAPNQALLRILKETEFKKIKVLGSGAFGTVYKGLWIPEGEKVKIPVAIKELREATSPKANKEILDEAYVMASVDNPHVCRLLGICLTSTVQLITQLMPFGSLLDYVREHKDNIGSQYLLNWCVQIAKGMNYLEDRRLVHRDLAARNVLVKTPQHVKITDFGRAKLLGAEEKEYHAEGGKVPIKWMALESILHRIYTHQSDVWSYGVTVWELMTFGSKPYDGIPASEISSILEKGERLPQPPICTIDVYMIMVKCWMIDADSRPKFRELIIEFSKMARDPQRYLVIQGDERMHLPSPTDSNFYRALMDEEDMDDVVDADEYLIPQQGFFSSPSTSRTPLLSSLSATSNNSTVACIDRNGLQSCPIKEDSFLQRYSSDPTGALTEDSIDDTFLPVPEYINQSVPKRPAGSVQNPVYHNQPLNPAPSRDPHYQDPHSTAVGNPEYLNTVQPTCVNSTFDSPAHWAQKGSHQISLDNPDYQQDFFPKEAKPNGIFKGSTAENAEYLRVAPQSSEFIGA
Description: as §1, §2, §3, §4, §5, §6, §7, §8, §9, §10, §11, §12, §13

[3] = biological target: Ba/F3-FL-EGFR (del19-E746-A750/T790M) (Homo sapiens, UniProt P00533, DEL746-750/T790M, cells depend on it); assay: Cell proliferation inhibition, CellTiter-Glo; format: cell-based
Sequence of Ba/F3-FL-EGFR (del19-E746-A750/T790M) (P00533 with tags, fused parts or gaps DEL746-750/T790M): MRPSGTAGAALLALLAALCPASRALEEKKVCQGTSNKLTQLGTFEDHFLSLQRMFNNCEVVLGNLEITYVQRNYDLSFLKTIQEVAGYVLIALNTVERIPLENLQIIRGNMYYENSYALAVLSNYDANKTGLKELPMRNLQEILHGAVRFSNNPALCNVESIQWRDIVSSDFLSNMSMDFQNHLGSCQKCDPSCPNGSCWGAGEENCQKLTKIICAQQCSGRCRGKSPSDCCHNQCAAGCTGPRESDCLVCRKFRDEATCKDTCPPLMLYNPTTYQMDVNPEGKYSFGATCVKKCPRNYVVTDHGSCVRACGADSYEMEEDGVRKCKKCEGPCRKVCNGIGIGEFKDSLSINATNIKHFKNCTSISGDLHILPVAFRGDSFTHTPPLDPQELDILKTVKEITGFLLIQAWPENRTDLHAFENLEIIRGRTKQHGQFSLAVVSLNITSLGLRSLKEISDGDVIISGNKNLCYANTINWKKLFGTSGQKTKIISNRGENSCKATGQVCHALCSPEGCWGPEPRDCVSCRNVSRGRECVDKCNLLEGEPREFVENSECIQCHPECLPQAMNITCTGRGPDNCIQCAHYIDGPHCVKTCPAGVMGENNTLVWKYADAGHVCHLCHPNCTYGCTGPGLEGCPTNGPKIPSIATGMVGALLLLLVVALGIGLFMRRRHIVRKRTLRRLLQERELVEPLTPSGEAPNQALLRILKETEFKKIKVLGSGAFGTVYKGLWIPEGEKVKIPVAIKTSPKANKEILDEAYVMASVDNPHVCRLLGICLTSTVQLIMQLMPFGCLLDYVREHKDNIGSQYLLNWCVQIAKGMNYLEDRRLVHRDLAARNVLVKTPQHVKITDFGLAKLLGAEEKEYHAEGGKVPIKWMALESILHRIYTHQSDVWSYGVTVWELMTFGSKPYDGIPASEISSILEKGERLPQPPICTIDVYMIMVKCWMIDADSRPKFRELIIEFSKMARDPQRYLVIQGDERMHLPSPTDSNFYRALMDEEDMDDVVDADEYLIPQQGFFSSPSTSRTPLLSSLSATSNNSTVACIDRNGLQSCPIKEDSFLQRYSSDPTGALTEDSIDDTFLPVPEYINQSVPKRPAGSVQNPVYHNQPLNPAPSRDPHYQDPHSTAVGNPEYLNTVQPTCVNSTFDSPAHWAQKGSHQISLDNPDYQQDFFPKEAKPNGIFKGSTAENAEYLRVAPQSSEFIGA
Description: as §1, §2, §3, §4, §5, §6, §7, §8, §9, §10, §11, §12, §13

[4] = biological target: Ba/F3-FL-EGFR (del19-S752-I759) (Homo sapiens, UniProt P00533, DEL752-759, cells depend on it); assay: Cell proliferation inhibition, CellTiter-Glo; format: cell-based; details: 72 hours, read-out: Cell half-maximal inhibition concentration IC50 Ba/F3-FL-EGFR (del19-S752-I759)
Description: as §1, §2, §3, §4, §5, §6, §7, §8, §9, §10, §11, §12, §13

Ba/F3-FL-EGFR (WT) = Ba/F3-FL-EGFR (WT) (Homo sapiens, UniProt P00533); assay: Cell proliferation inhibition, CellTiter-Glo; format: cell-based
Sequence of Ba/F3-FL-EGFR (WT) (P00533 whole entry, change not shown): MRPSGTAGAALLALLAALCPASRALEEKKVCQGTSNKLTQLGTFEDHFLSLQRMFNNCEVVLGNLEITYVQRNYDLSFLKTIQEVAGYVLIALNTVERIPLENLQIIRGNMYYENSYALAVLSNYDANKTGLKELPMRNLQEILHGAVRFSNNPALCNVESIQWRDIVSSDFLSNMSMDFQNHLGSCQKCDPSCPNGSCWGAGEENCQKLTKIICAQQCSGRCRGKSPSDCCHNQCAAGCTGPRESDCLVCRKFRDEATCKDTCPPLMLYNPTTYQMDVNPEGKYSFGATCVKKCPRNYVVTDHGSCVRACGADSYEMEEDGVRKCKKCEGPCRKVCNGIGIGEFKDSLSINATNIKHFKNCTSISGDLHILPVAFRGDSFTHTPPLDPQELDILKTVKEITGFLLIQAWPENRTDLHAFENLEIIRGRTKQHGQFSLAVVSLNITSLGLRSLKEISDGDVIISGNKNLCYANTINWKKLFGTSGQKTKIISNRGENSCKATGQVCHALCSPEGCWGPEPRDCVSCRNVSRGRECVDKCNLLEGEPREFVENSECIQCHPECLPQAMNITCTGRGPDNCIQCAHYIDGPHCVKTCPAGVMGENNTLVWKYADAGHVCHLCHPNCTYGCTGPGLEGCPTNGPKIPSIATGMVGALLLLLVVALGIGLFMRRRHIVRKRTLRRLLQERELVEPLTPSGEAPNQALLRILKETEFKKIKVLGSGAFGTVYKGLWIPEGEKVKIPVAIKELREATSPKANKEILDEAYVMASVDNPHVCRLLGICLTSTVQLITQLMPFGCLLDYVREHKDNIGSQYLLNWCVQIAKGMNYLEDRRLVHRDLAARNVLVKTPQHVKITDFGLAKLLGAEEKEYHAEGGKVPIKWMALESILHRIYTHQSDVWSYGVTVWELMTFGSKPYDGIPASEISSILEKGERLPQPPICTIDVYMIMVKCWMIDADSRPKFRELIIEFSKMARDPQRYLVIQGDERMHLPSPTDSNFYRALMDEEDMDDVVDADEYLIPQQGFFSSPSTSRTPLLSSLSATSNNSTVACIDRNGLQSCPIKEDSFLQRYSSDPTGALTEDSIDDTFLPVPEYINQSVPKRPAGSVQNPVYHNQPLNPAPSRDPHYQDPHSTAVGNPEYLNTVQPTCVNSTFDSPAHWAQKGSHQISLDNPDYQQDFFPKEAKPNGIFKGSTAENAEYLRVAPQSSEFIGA
Description: as §1, §2, §3, §4, §5, §6, §7, §8, §9, §10, §11, §12, §13

[5] = 72 hours, read-out: Cell half-maximal inhibition concentration IC50 Ba/F3-TEL-EGFR (L858R/C797S)
[6] = 72 hours, read-out: Cell half-maximal inhibition concentration IC50 Ba/F3-FL-EGFR (del19-E746-A750/T790M)
[7] = 72 hours, read-out: Cell half-maximal inhibition concentration IC50 Ba/F3-FL-EGFR (WT)

Row | Compound | Apparent clearance Cl ([1]; IV 3 mg/kg) [mL/min/kg] | Vd ([1]; IV 3 mg/kg) [L/kg] | AUC(0-t) ([1]; IV 3 mg/kg) [µM·h] | half-life ([1]; IV 3 mg/kg) [h] | C0 ([1]; IV 3 mg/kg) [µM] | bioavailability [1] [%] | AUC(0-t) ([1]; PO 10 mg/kg) [µM·h] | Cmax ([1]; PO 10 mg/kg) [µM] | Tmax ([1]; PO 10 mg/kg) [h] | GI50 (Ba/F3-FL-EGFR (L858R)) [µM] | GI50 [2, 5] [µM] | GI50 [3, 6] [µM] | GI50 [4] [µM] | GI50 (Ba/F3-FL-EGFR (WT); [7]) [µM] | GI50 ([2]; read-out: Cell half-maximal inhibition concentration IC50 Ba/F3-TEL-EGFR (L858R/C797S), 72 hours) [µM] | GI50 ([3]; read-out: Cell half-maximal inhibition concentration IC50 Ba/F3-FL-EGFR (del19-E746-A750/T790M), 72 hours) [µM] | GI50 (Ba/F3-FL-EGFR (WT); read-out: Cell half-maximal inhibition concentration IC50 Ba/F3-FL-EGFR (WT), 72 hours) [µM]
1 | Cc1cc2cc(n1)-c1cnn(C)c1OC[C@H]1CC[C@H](C1)CN1/C(=N/C2=O)Nc2ccc(N=S(C)(C)=O)cc21 (single isomer, unassigned) [WX-027A] | 14.2 | 1 | 7.7 | 1.1 | 6.85 | 64 | 15.7 | 5.91 | 0.8 | 0.0396 | 0.0052 | 0.0019 | 0.0129 | 0.295 | – | – | –
2 | Cc1cc2cc(n1)-c1cnn(C)c1OCCC[C@@H](C)CN1/C(=N/C2=O)Nc2ccc(N=S(C)(C)=O)cc21 [WX-006] | 14.6 | 1.9 | 6.54 | 3.6 | 8.14 | 83 | 18.1 | 3.59 | 1.5 | 0.0186 | 0.0031 | 0.0008 | 0.0154 | 0.111 | – | – | –
3 | Cc1cc2cc(n1)-c1cnn(C)c1OCCC[C@@H](C)CN1/C(=N/C2=O)Nc2ccc(N=S3(=O)CCCC3)cc21 [WX-010 (trifluoroacetate)] | 5.7 | 1 | 16.1 | 2.8 | 8.14 | 56 | 30.1 | 4.49 | 1 | 0.014 | 0.003 | 0.0004 | 0.0112 | 0.086 | – | – | –
4 | Cc1cc2cc(n1)-c1cnn(C)c1OCCC[C@@H](C)CN1/C(=N/C2=O)Nc2ccc(N=S3(=O)CCOCC3)cc21 [WX-013] | 4.7 | 1 | 18.9 | 3.3 | 12.1 | 34 | 21.5 | 3.94 | 1 | – | – | – | – | – | 0.0031 | 0.0006 | 0.123
5 | Cc1cc2cc(n1)-c1cnn(C)c1OCCC[C@@H](C)CN1/C(=N/C2=O)Nc2ccc(N=S(C)(C)=O)c(Cl)c21 [WX-019] | 8.6 | 1.6 | 10.6 | 2.5 | 5.73 | 65 | 23.2 | 3.92 | 1 | 0.0422 | 0.0073 | 0.0029 | 0.0156 | 0.303 | – | – | –
